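GI50 marks 50% less growth. Definition used: TGI = concentration required for complete inhibition of growth.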
Experiments:
Assay in all cases: NCI-60 cell line screen, 384-well format
IGROV1 ovarian = system: IGROV1 ovarian
SW-620 colon = system: SW-620 colon
U251 glioblastoma = system: U251 glioblastoma
A498 renal = system: A498 renal
LOX IMVI melanoma = system: LOX IMVI melanoma
ACHN renal = system: ACHN renal
NCI-H322M lung = system: NCI-H322M lung
MOLT-4 leukemia = system: MOLT-4 leukemia
SNB-75 CNS = system: SNB-75 CNS
OVCAR-8 ovarian = system: OVCAR-8 ovarian
BT-549 breast = system: BT-549 breast
K-562 leukemia = system: K-562 leukemia
786-0 renal = system: 786-0 renal
NCI-H522 lung = system: NCI-H522 lung
SNB-19 CNS = system: SNB-19 CNS
UO-31 renal = system: UO-31 renal
SK-MEL-5 melanoma = system: SK-MEL-5 melanoma
NCI-H226 lung = system: NCI-H226 lung
OVCAR-5 ovarian = system: OVCAR-5 ovarian
SF-539 CNS = system: SF-539 CNS
OVCAR-4 ovarian = system: OVCAR-4 ovarian
HS 578T breast = system: HS 578T breast
NCI/ADR-RES ovarian = system: NCI/ADR-RES ovarian
HL-60(TB) leukemia = system: HL-60(TB) leukemia
HCT-15 colon = system: HCT-15 colon
SK-OV-3 ovarian = system: SK-OV-3 ovarian
CCRF-CEM leukemia = system: CCRF-CEM leukemia
MDA-MB-468 breast = system: MDA-MB-468 breast
SF-295 CNS = system: SF-295 CNS
RPMI-8226 leukemia = system: RPMI-8226 leukemia
MALME-3M melanoma = system: MALME-3M melanoma
EKVX NSCLC = system: EKVX NSCLC
SK-MEL-28 melanoma = system: SK-MEL-28 melanoma
CAKI-1 renal = system: CAKI-1 renal
HCC-2998 colon = system: HCC-2998 colon
SF-268 CNS = system: SF-268 CNS
MCF7 breast = system: MCF7 breast
COLO 205 colon = system: COLO 205 colon
DU-145 prostate = system: DU-145 prostate
MDA-MB-231 breast = system: MDA-MB-231 breast
OVCAR-3 ovarian = system: OVCAR-3 ovarian
HCT-116 colon = system: HCT-116 colon
NCI-H460 NSCLC = system: NCI-H460 NSCLC
NCI-H23 lung = system: NCI-H23 lung
M14 melanoma = system: M14 melanoma
HOP-92 NSCLC = system: HOP-92 NSCLC
UACC-62 melanoma = system: UACC-62 melanoma
KM12 colon = system: KM12 colon
HT29 colon = system: HT29 colon
HOP-62 NSCLC = system: HOP-62 NSCLC
MDA-MB-435 melanoma = system: MDA-MB-435 melanoma
TK-10 renal = system: TK-10 renal
A549 NSCLC = system: A549 NSCLC
PC-3 prostate = system: PC-3 prostate
RXF 393 renal = system: RXF 393 renal
SN12C renal = system: SN12C renal
UACC-257 melanoma = system: UACC-257 melanoma

SMILES: COc1ccccc1N1CCN(C(=O)c2ccc(NS(=O)(=O)c3cccc4cccnc34)cc2)CC1
- GI50 (IGROV1 ovarian): > 100 µM
- TGI (IGROV1 ovarian): > 100 µM
- GI50 (SW-620 colon): 44.8 µM
- TGI (SW-620 colon): > 100 µM
- GI50 (U251 glioblastoma): 40.7 µM
- TGI (U251 glioblastoma): > 100 µM
- GI50 (A498 renal): 71.9 µM
- TGI (A498 renal): > 100 µM
- GI50 (LOX IMVI melanoma): > 100 µM
- TGI (LOX IMVI melanoma): > 100 µM
- GI50 (ACHN renal): > 100 µM
- TGI (ACHN renal): > 100 µM
- GI50 (NCI-H322M lung): 53.4 µM
- TGI (NCI-H322M lung): > 100 µM
- GI50 (MOLT-4 leukemia): 4.05 µM
- TGI (MOLT-4 leukemia): > 100 µM
- GI50 (SNB-75 CNS): > 100 µM
- TGI (SNB-75 CNS): > 100 µM
- GI50 (OVCAR-8 ovarian): 28.1 µM
- TGI (OVCAR-8 ovarian): > 100 µM
- GI50 (BT-549 breast): 33 µM
- TGI (BT-549 breast): > 100 µM
- GI50 (K-562 leukemia): 10 µM
- TGI (K-562 leukemia): 34.6 µM
- GI50 ([…]-0 renal): 40.8 µM
- TGI (786-0 renal): > 100 µM
- GI50 (NCI-H522 lung): 16.8 µM
- TGI (NCI-H522 lung): 34.2 µM
- GI50 (SNB-19 CNS): 52.1 µM
- TGI (SNB-19 CNS): > 100 µM
- GI50 (UO-31 renal): > 100 µM
- TGI (UO-31 renal): > 100 µM
- GI50 (SK-MEL-5 melanoma): 7.09 µM
- TGI (SK-MEL-5 melanoma): > 100 µM
- GI50 (NCI-H226 lung): 8.48 µM
- TGI (NCI-H226 lung): > 100 µM
- GI50 (OVCAR-5 ovarian): > 100 µM
- TGI (OVCAR-5 ovarian): > 100 µM
- GI50 (SF-539 CNS): 32 µM
- TGI (SF-539 CNS): > 100 µM
- GI50 (OVCAR-4 ovarian): > 100 µM
- TGI (OVCAR-4 ovarian): > 100 µM
- GI50 (HS 578T breast): 25.9 µM
- TGI (HS 578T breast): > 100 µM
- GI50 (NCI/ADR-RES ovarian): > 100 µM
- TGI (NCI/ADR-RES ovarian): > 100 µM
- GI50 (HL-60(TB) leukemia): 18.2 µM
- TGI (HL-60(TB) leukemia): 33.3 µM
- GI50 (HCT-15 colon): 28.9 µM
- TGI (HCT-15 colon): > 100 µM
- GI50 (SK-OV-3 ovarian): 38.9 µM
- TGI (SK-OV-3 ovarian): > 100 µM
- GI50 (CCRF-CEM leukemia): 9.02 µM
- TGI (CCRF-CEM leukemia): 23.6 µM
- GI50 (MDA-MB-468 breast): 4.03 µM
- TGI (MDA-MB-468 breast): 17.6 µM
- GI50 (SF-295 CNS): > 100 µM
- TGI (SF-295 CNS): > 100 µM
- GI50 (RPMI-8226 leukemia): 10.2 µM
- TGI (RPMI-8226 leukemia): 23.6 µM
- GI50 (MALME-3M melanoma): > 100 µM
- TGI (MALME-3M melanoma): > 100 µM
- GI50 (EKVX NSCLC): 37.9 µM
- TGI (EKVX NSCLC): > 100 µM
- GI50 (SK-MEL-28 melanoma): > 100 µM
- TGI (SK-MEL-28 melanoma): > 100 µM
- GI50 (CAKI-1 renal): 74.5 µM
- TGI (CAKI-1 renal): > 100 µM
- GI50 (HCC-2998 colon): 12.7 µM
- TGI (HCC-2998 colon): 56.1 µM
- GI50 (SF-268 CNS): 13.7 µM
- TGI (SF-268 CNS): 47.4 µM
- GI50 (MCF7 breast): 24.5 µM
- TGI (MCF7 breast): > 100 µM
- GI50 (COLO 205 colon): 31.5 µM
- TGI (COLO 205 colon): > 100 µM
- GI50 (DU-145 prostate): > 100 µM
- TGI (DU-145 prostate): > 100 µM
- GI50 (MDA-MB-231 breast): 63.5 µM
- TGI (MDA-MB-231 breast): > 100 µM
- GI50 (OVCAR-3 ovarian): 24.9 µM
- TGI (OVCAR-3 ovarian): 81.4 µM
- GI50 (HCT-116 colon): 32.8 µM
- TGI (HCT-116 colon): > 100 µM
- GI50 (NCI-H460 NSCLC): 14.1 µM
- TGI (NCI-H460 NSCLC): 31 µM
- GI50 (NCI-H23 lung): > 100 µM
- TGI (NCI-H23 lung): > 100 µM
- GI50 (M14 melanoma): 26.9 µM
- TGI (M14 melanoma): 84.9 µM
- GI50 (HOP-92 NSCLC): > 100 µM
- TGI (HOP-92 NSCLC): > 100 µM
- GI50 (UACC-62 melanoma): 58.6 µM
- TGI (UACC-62 melanoma): > 100 µM
- GI50 (KM12 colon): > 100 µM
- TGI (KM12 colon): > 100 µM
- GI50 (HT29 colon): > 100 µM
- TGI (HT29 colon): > 100 µM
- GI50 (HOP-62 NSCLC): 32.1 µM
- TGI (HOP-62 NSCLC): > 100 µM
- GI50 (MDA-MB-435 melanoma): 20.4 µM
- TGI (MDA-MB-435 melanoma): 42.9 µM
- GI50 (TK-10 renal): > 100 µM
- TGI (TK-10 renal): > 100 µM
- GI50 (A549 NSCLC): 18.5 µM
- TGI (A549 NSCLC): > 100 µM
- GI50 (PC-3 prostate): 56 µM
- TGI (PC-3 prostate): > 100 µM
- GI50 (RXF 393 renal): 18.2 µM
- TGI (RXF 393 renal): 80.9 µM
- GI50 (SN12C renal): 61.3 µM
- TGI (SN12C renal): > 100 µM
- GI50 (UACC-257 melanoma): > 100 µM
- TGI (UACC-257 melanoma): > 100 µM

Source: PubChem BioAssay (NCI)
